The subject of series [1] is mice. Conditions: mouse, in vivo.
Series [2] deals with mice. The following applies: mouse, in vivo, iv.
The test system of series [3] is mice. Conditions: mouse, in vivo. The source holds these as a separate data set.

With `CSCC[C@@H]1NC(=O)[C@H](CC(C)C)NC(=O)[C@H](CCCNC(=N)N)NC(=O)[C@H](CO)NC(=O)[C@@H]2CSSC[C@@H]3NC(=O)[C@H](CO)NC(=O)CNC(=O)[C@H]([C@@H](C)O)NC(=O)[C@H](CSSC[C@H](N)C(=O)N[C@@H](CCCCN)C(=O)NCC(=O)N[C@@H](CCCCN)C(=O)NCC(=O)N[C@@H](C)C(=O)N[C@@H](CCCCN)C(=O)N2)NC(=O)[C@H](CSSC[C@@H](C(N)=O)NC(=O)[C@H](CCCCN)NC(=O)CNC(=O)[C@H](CO)NC(=O)[C@H](CCCNC(=N)N)NC3=O)NC(=O)[C@H](CC(=O)O)NC(=O)[C@H](Cc2ccc(O)cc2)NC1=O` [MVIIA, reference compound], the “tremor symptoms and tremor time (side effects) 30 minutes after administration” value with mice [1] is “more obvious tremor symptoms and longer tremor time”.
For “CKGKGAKCSRLMYDCCTGSCRSGKCGGGYGRKKRRQRRR [MVIIA-d]”, in the series on mice [1], the “tremor symptoms and tremor time (side effects) 30 minutes after administration” value is “lower than that of MVIIA”; the “tremor symptoms and tremor time (side effects) 120 minutes after administration, compared with MVIIA” value is given as “no significant differences”. In addition, in the series with mice [2], the “antinociceptive effect 1 hour after injection” value (“antinociceptive effect 1 hour” for short) was “showed antinociceptive effects” and the “duration of the maximal effect” value is “about 4 hours”. For the same compound, the “onset of antinociceptive effect after nasal administration” value (from here on “onset of antinociceptive effect”) with mice [3] is reported as “immediate effect”.
“CKGKGAKCSRLMYDCCTGSCRSGKCGGYGRKKRRQRRR [MVIIA-c]”: in the series on mice [1], the “tremor symptoms and tremor time (side effects) 30 minutes after administration” value is recorded as “lower than that of MVIIA”; the “tremor symptoms and tremor time (side effects) 120 minutes after administration, compared with MVIIA” value is on record as “no significant differences”. For the same compound, in the series with mice [2], the “duration of the maximal effect” value was “about 4 hours” and the “time of maximal (strongest) antinociceptive effect after administration” value came to 3 h. Further, in the series with mice [3], the “difference from the saline group at 8 hours” value is “still significantly different”, the “onset of antinociceptive effect” value is listed as “immediate effect” and the “time after which the effect disappears” value was determined as 10 h.
In the case of “CKGKGAKCSRLMYDCCTGSCRSGKCGYGRKKRRQRRR [MVIIA-b]”, in the series with mice [1], the “tremor symptoms and tremor time (side effects) 30 minutes after administration” value is given as “lower than that of MVIIA”; the “tremor symptoms and tremor time (side effects) 120 minutes after administration, compared with MVIIA” value is given as “no significant differences”. Besides, in the series on mice [2], the “antinociceptive effect 1 hour” value was “showed antinociceptive effects” and the “duration of the maximal effect” value was “about 4 hours”. For the same compound, in the series with mice [3], the “difference from the saline group at 8 hours” value was “still significantly different”, the “onset of antinociceptive effect” value is reported as “immediate effect” and the “time after which the effect disappears” value turned out to be 10 h.
Regarding “CKGKGAKCSRLMYDCCTGSCRSGKCYGRKKRRQRRR [MVIIA-a]”, in the series on mice [1], the “tremor symptoms and tremor time (side effects) 30 minutes after administration” value was “lower than that of MVIIA”; the “tremor symptoms and tremor time (side effects) 120 minutes after administration, compared with MVIIA” value was “no significant differences”. Besides, in the series on mice [2], the “antinociceptive effect 1 hour” value is “showed antinociceptive effects” and the “duration of the maximal effect” value is on record as “about 4 hours”. For the same compound, in the series on mice [3], the “onset of antinociceptive effect” value is “immediate effect”.

The values are drawn from patent US11814416B2, “Polypeptide capable of passing through blood-brain barrier” (SHENZHEN RUIJIAN […] COMPANY, priority 2018, dated 2023).
